From article PMC5892710 (Nature chemical biology, 2017)

Target: T1, Etr1p (Candida tropicalis, UniProt Q8WZM3)
T1 sequence (Q8WZM3 23-386): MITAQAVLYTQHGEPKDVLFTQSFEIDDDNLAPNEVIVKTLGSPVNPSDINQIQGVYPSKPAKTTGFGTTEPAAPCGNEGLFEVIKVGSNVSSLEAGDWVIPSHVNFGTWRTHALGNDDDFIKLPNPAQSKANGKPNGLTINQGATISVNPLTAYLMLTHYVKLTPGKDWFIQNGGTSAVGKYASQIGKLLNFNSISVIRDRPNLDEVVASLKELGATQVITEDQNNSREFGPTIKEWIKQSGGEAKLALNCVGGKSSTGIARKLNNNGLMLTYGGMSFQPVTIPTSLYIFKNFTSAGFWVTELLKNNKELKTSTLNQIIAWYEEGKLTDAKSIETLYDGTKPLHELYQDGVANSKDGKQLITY
Experiment: isothermal titration calorimetry
Assay type: binding
Conditions: 150 mM NaCl, 20 mM Tris-HCl pH 7.9; association constant

`NC(=O)C1=CN([C@@H]2O[C@H](COP(=O)(O)OP(=O)(O)OC[C@H]3O[C@@H](n4cnc5c(N)ncnc54)[C@H](OP(=O)(O)O)[C@@H]3O)[C@@H](O)[C@H]2O)C=CC1` [NADPH] was tested, and the binding constant was 3.8 ± 1.0 ·10^5.
